We go through two compounds from patent US7897568B2, “Compositions for treatment of cancer” (priority 2006, dated 2011).

Where a SMILES comes first, the peptide text is derived from it. Where no end group is shown, it is not given here.

For one experiment, the target named is T1, GST-SNCG (Homo sapiens, UniProt O76070).
T1 construct: The SNCG coding region was amplified from the human cDNA clone; made in house; host or cells: Escherichia coli BL21 (DE3)
The experiment can be described thus: Isothermal titration calorimetry of ANK peptide into GST-SNCG. The note with it: ITC, first binding site.

The next experiment has as its system MCF7-Neo cells. The experiment can be described thus: Mitotic index and apoptosis by DAPI staining after paclitaxel. In kind it is cell-based. To be noted: neo cells expressing EGFP-ANK versus pEGFP, paclitaxel 18 hours. As to the method:
FIG. 7A through D show expression of EGFP-ANK disrupting the SNCG-mediated inhibition of mitotic checkpoint function as measured by microscopy and flow cytometry. The bar graphs show the expression of EGFP-ANK disrupting the SNCG-mediated inhibition of mitotic checkpoint function, using (FIG. 7A) DAPI and (FIG. 7B) anti-phospho-H^3 staining. For graphs of FIGS. 7A and 7B, the cells treated with 0.5 μM paclitaxel for 18 hours or untreated control cells were fixed with 4% paraformaldehyde for 20 minutes at room temperature. In both cases, the cells were then stained with 1 μg/ml of DAPI or 2 μg/ml anti-phospho-H3 primary and Texas Red goat anti-rabbit secondary antibodies (Invitrogen). Green fluorescent cells were identified for positive transfected cells. For each sample, 200-300 cells randomly chosen from 5 different views under a Nikon fluorescent microscope were scored for interphase, mitotic, or apoptotic based upon nuclei morphology. The data shown were derived from three separate transfections (p<0.01). […]
Two days after transfection, cells were exposed to paclitaxel for 18 hours and numbers of mitotic arrested and apoptotic cells were counted after DAPI staining. […] These cells were also probed with rabbit polyclonal anti-phospho-H^3 and the mitotic index was calculated according to the proportion of the number of H^3 stained EGFP positive cells to total EGFP positive cells (FIG. 7B). […]

The next experiment deals with SNCG (Homo sapiens, UniProt O76070). The experiment can be described thus: Co-localization of EGFP-ANK with SNCG by confocal microscopy. Set-up: expressed in transfected cells; host or cells: MCF7-SNCG (MCF7 stably expressing SNCG). In kind it is cell-based. The note with it: green fluorescent signals in transfected cells. An excerpt: FIGS. 5A through 5D show co-localization, co-immunoprecipitation (co-IP) and GST pull down experiments, using an enhance green fluorescent protein (EGFP)-ANK fusion protein, which confirm that SNCG associates with the ANK peptide in vivo. FIG. 5A is a western blot depicting detection of EGFP-ANK expression in COS7 cells. Lanes 2 and 3 were samples transfected with different clones, cl-4 and cl-8, respectively, of pEGFP-ANK plasmid. In FIG. 5B, MCF7-SNCG cells were transfected with pEGFP-ANK, fixed on a cover slip, permeabilized and probed with anti-SNCG and anti-GFP antibodies to observe co-localization. Fluorescent cells were visualized using an ×100 objective (oil) on an inverted confocal microscope (Leica). FIGS. 5C and 5D are western blots showing association of SNCG and ANK peptide as evidenced by co-IP of SNCG with EGFP-ANK in MCF7-SNCG and MCF7-neo cells. In these experiments, MCF7-SNCG and MCF7-neo cells were transfected with pEGFP-ANK or pEGFP plasmids. […]
To further examine the utility of the ANK peptide as a therapeutic tool against SNCG-caused drug resistance, this peptide was expressed in breast cancer cells. ANK peptide nucleotide sequences were cloned into pEGFP-C2 vector (pEGFP-ANK), and ANK peptide was expressed as a fusion protein with its amino-terminal linked to EGFP protein. […]

Sequence of SNCG (O76070 whole entry, the tested form may be a part): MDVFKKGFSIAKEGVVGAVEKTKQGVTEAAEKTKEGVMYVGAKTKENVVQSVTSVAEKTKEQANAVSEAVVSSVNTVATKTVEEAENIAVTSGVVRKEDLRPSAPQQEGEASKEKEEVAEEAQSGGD
T1 sequence (O76070 whole entry): as the sequence (O76070 whole entry, the tested form may be a part) above
Description for GST-SNCG: The heat of dilution was measured by titrating ANK peptide in buffer alone. This was generally small and subtracted from each binding titration curve.
Titration calorimetry measurements were performed with a VP-ITC calorimeter (Microcal, Northampton, Mass.). The protein solution for ITC was dialyzed extensively overnight against 10 mM phosphate buffer, pH 7.0. The peptide solution was prepared by diluting with the buffer used for the protein dialysis. Injections (6 μl×50) of peptide (400 μM) were done by means of a rotating stirrer-syringe to the reaction cell, containing 1.43 ml of the 50 μM protein solution. The heat of dilution was determined to be negligible in separate titrations of the ligand into the buffer solution. Calorimetric data analysis was carried out with ORIGIN 5.0 software (MicroCal). Binding parameters such as the number of binding sites, the binding constant, and the binding enthalpy of bound ligand were determined by fitting the experimental binding isotherms.

For `CC[C@H](C)[C@H](NC(=O)[C@H](CS)NC(=O)CNC(=O)[C@H](CC(C)C)NC(=O)[C@H](Cc1c[nH]cn1)NC(=O)CNC(=O)[C@H](Cc1c[nH]cn1)NC(=O)[C@H](CCC(N)=O)NC(=O)[C@H](CO)NC(=O)[C@H](C)NC(=O)[C@@H](NC(=O)[C@H](Cc1c[nH]cn1)NC(=O)[C@H](CC(C)C)NC(=O)[C@H](C)NC(=O)[C@H](CO)NC(=O)[C@H](CC(N)=O)NC(=O)CNC(=O)[C@H](CCCCN)NC(C)=O)C(C)C)C(=O)N[C@@H](CCC(N)=O)C(=O)N[C@H](C(=O)N[C@@H](CC(C)C)C(=O)N[C@H](C(=O)N[C@@H](CCCNC(=N)N)C(=O)N[C@@H](Cc1ccc(O)cc1)C(=O)NCC(=O)N[C@@H](C)C(=O)N[C@@H](CC(N)=O)C(=O)N[C@H](C(=O)N[C@H](C(=O)N[C@@H](CCSC)C(=O)N[C@@H](CCC(N)=O)C(=O)N[C@@H](CC(N)=O)C(=O)N[C@@H](Cc1c[nH]cn1)C(=O)NCC(N)=O)[C@@H](C)O)C(C)C)C(C)C)[C@@H](C)O` [ANK peptide] (Ac-KGNSALHVASQHGHLGCIQTLVRYGANVTMQNHG-NH2), the ΔH on GST-SNCG came to 2.174 ± 0.2 kcal/mol.

On to “EGFP-ANK: ANK peptide expressed as a fusion protein with its amino-terminal linked to EGFP protein, approximately 37 kDa ({EGFP}-KGNSALHVASQHGHLGCIQTLVRYGANVTMQNHG)”, for which, in the experiment with MCF7-Neo cells, the mitotic index entry is recorded as “did not significantly alter” and the “percentage of apoptotic cells” value was “did not significantly alter”. Moreover, the “intracellular localization relative to SNCG” value in the experiment with SNCG is “co-localized with SNCG in the cytoplasm”.
